In patent US9028856B2, “Synergistic pesticide compositions” (priority 2008, dated 2015):

What was measured:
Assay type in all cases: in vivo
[1] = system: Red Imported Fire ant (RIFA), Solenopsis invicta; test: Knockdown/mortality of ant workers under continuous exposure on treated glazed tile; details: glazed tile
Excerpt: Treatments were allowed to dry overnight. […] Treatments were replicated minimum three times.
Treatments were allowed to dry overnight. […] Treatments were replicated a minimum of three times.

[2] = system: Odorous House ant, Tapinoma sessile; test: as above; details: glazed tile
Outline: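 Each tile surface (about 5″×5″) was treated, left to dry overnight and tested in a minimum of three replicates.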

[3] = system: Aedes aegypti mosquito; test: USDA Petri Dish Method, 3 min exposure to treated glazed tile; details: glazed tile, 3 min exposure
Outline: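 USDA Petri Dish screen: groups of twenty female Aedes aegypti (4-6 days old) held 3 minutes on dried acetone-based treatments (with/without adjuvant), then transferred to untreated card. Replicated three or more times; knockdown followed over time, mortality recorded 24 hours post-exposure with sucrose-soaked cotton available.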

[4] = system: Musca domestica, resistant strain Reichswald; test: Efficacy of formulations on surfaces (glazed/unglazed tiles), house flies, continuous exposure; details: for % KD and Mortality 15′ / % KD and Mortality 30′ / % KD and Mortality 1 h / % KD and Mortality 2 h / % KD and Mortality 3 h / % KD and Mortality 4 h / % KD and Mortality 6 h / % KD and Mortality 24 h: Table 115, EC formulation, continuous exposure
Method: (§1) All surfaces were provided with talcum-coated glass rings (diameter 9.5 cm, height 5.5 cm) one day later.
The test insects were anesthetized with CO2, 20 individuals were placed onto the treated surfaces and the glass ring was covered with wire gauze ring. […]
(§2) Each test consisted of at least one replicate and any additional replicates are noted.
(§3) Test Insects: House flies (Musca domestica) of both sexes, susceptible strain WHO(N) and resistant strain Reichswald
(§4) Evaluation: Mortality was evaluated cumulatively at different times. […]
(§5) Test Insects: Culex quinquefasciatus (adults) (3 minutes exposure time according to USDA Petri Dish Method), Musca domestica (adults), susceptible and resistant strain, Blattella germanica (males), Cimex lectularius (adults) (all: continuous exposure time)
(§6) Application: The EC formulation (diluted with water 1:9) were applied as 0.85 ml solutions onto glazed tiles (15 cm×15 cm)

[5] = system: Musca domestica, susceptible strain WHO(N); test: as above; details: for % KD and Mortality 15′ / % KD and Mortality 30′ / % KD and Mortality 1 h / % KD and Mortality 2 h / % KD and Mortality 3 h / % KD and Mortality 4 h / % KD and Mortality 6 h / % KD and Mortality 24 h: Table 114, EC formulation, continuous exposure
Method: A flat fan nozzle (type SS 8003-E) in a spray cabin was moved automatically over a defined area where the solutions were sprayed very evenly onto the surfaces. The formulation was mixed with water to give a concentration which corresponded to the desired quantity of a.i./m^2. A defined quantity of this solution was sprayed onto the area (nominal 350 liter/ha=0.77 ml per surface).
as §1
The test insects were anesthetized with CO2, 20 individuals were placed onto the treated surfaces and the glass ring was covered with wire gauze ring.
Knock down was determined after 15 and 30′, 1, 2, 4 and 6 hours, mortality after 1 day exposure.
as §2, §3, §4, §5, §6
Evaluation: Knock down after 15, and 30 minutes, 1, 2, 3, 4, 6 and 24 hours (mortality)
Test Insects: Culex quinquefasciatus (adults, susceptible) (3 minutes exposure time according to USDA Petri Dish Method), Musca domestica (adults, susceptible and resistant), Blattella germanica (males, susceptible) (both: continuous exposure time)
Formulations: Insecticide with or without 10% Compound A (as EC), to be diluted with water (1 part formulation+9 parts water)
Evaluation: Knock down after 3, 9 (mosquitoes only), 15, and 30 minutes, 1, 2, 3, 4 and 24 hours (mortality) […]

[6] = Table 60, Red Imported Fire ant, continuous exposure
[7] = Table 52, fipronil/adjuvant in acetone
[8] = 30 min, Table 51, fipronil/adjuvant in acetone
[9] = 60 min, Table 51, fipronil/adjuvant in acetone
[10] = 2 hr, Table 51, fipronil/adjuvant in acetone
[11] = Table 51, fipronil/adjuvant in acetone
[12] = Table 48, fipronil/adjuvant in acetone
[13] = 0.1% = 50 mg Bendiocarb/m^2 on glazed tiles
[14] = 0.001% deltamethrin in acetone on glazed tiles, with or without adjuvant
[15] = 0.1% = 50 mg imidacloprid/m^2 on glazed tiles

CC[S+]([O-])c1c(C#N)nn(-c2c(Cl)cc(C(F)(F)F)cc2Cl)c1N (centres unmarked) [Ethiprole (1%)]
Average % Mortality after 1 hr ([1]; Table 60, Red Imported Fire ant, continuous exposure, 1 hr): 0% | Average % Mortality after 1.5 hr ([1]; Table 60, Red Imported Fire ant, continuous exposure, 1.5 hr): 0% | Average % Mortality after 2 hr [1, 6]: 0% | Average % Mortality after 3 hr [1, 6]: 10% | Average % Mortality after 30 min ([1]; Table 60, Red Imported Fire ant, continuous exposure, adjuvant = Compound A 1% + Compound B 0.5%): 0% | Average % Knockdown & Mortality after 30 min ([2]; Table 59, Odorous House ant, continuous exposure, 30 min): 0% | Average % Knockdown & Mortality after 45 min ([2]; Table 59, Odorous House ant, continuous exposure, 45 min): 0% | Average % Knockdown & Mortality after 60 min ([2]; Table 59, Odorous House ant, continuous exposure, 60 min): 3% | Average % Knockdown & Mortality after 2 hr ([2]; Table 59, Odorous House ant, continuous exposure, 2 hr): 7% | Average % Knockdown & Mortality after 15 min ([2]; Table 59, Odorous House ant, continuous exposure, adjuvant = Compound A 1% + Compound B 0.5%, 15 min): 0% | Average % Knockdown & Mortality after 4 hr ([3]; Table 56, Aedes aegypti): 17% | Average % Knockdown & Mortality after 6 hr ([3]; Table 56, Aedes aegypti): 27% | Average % Knockdown & Mortality after 24 hr ([3]; Table 56, Aedes aegypti): 46% | Average % Knockdown & Mortality after 2 hr ([3]; Table 56, Aedes aegypti, adjuvant = Compound A 1% + Compound B 0.5%, 2 hr): 2%

N#Cc1nn(-c2c(Cl)cc(C(F)(F)F)cc2Cl)c(N)c1[S+]([O-])C(F)(F)F (centres unmarked) [Fipronil (.001%)]
Average % Mortality after 30 min [1, 7]: 0% | Average % Mortality after 60 min [1, 7]: 0% | Average % Mortality after 2 hr [1, 7]: 0% | Average % Mortality after 3 hr [1, 7]: 25% | Average % Mortality after 24 hr [1, 7]: 100% | Average % Mortality after 30 min [2, 8]: 0% | Average % Mortality after 60 min [2, 9]: 0% | Average % Mortality after 2 hr [2, 10]: 0% | Average % Mortality after 24 hr [2, 11]: 100% | Average % Knockdown & Mortality after 15 min [3, 12]: 0% | Average % Knockdown & Mortality after 30 min [3, 12]: 0% | Average % Knockdown & Mortality after 60 min [3, 12]: 0% | Average % Knockdown & Mortality after 4 hr [3, 12]: 0% | Average % Knockdown & Mortality after 6 hr [3, 12]: 3% | Average % Knockdown & Mortality after 24 hr [3, 12]: 3%

N#Cc1nn(-c2c(Cl)cc(C(F)(F)F)cc2Cl)c(N)c1[S+]([O-])C(F)(F)F (centres unmarked) [Fipronil (.01%)]
Average % Mortality after 30 min [1, 7]: 0% | Average % Mortality after 60 min [1, 7]: 0% | Average % Mortality after 2 hr [1, 7]: 0% | Average % Mortality after 3 hr [1, 7]: 0% | Average % Mortality after 24 hr [1, 7]: 100% | Average % Mortality after 30 min [2, 8]: 0% | Average % Mortality after 60 min [2, 9]: 0% | Average % Mortality after 2 hr [2, 10]: 6% | Average % Mortality after 24 hr [2, 11]: 100% | Average % Knockdown & Mortality after 15 min [3, 12]: 5% | Average % Knockdown & Mortality after 30 min [3, 12]: 6% | Average % Knockdown & Mortality after 60 min [3, 12]: 19% | Average % Knockdown & Mortality after 4 hr [3, 12]: 42% | Average % Knockdown & Mortality after 6 hr [3, 12]: 56% | Average % Knockdown & Mortality after 24 hr [3, 12]: 72%

CNC(=O)Oc1cccc2c1OC(C)(C)O2 [bendiocarb]
% KD and Mortality 15′ [4, 13]: 0% | % KD and Mortality 30′ [4, 13]: 0% | % KD and Mortality 1 h [4, 13]: 0% | % KD and Mortality 2 h [4, 13]: 0% | % KD and Mortality 3 h [4, 13]: 0% | % KD and Mortality 4 h [4, 13]: 0% | % KD and Mortality 6 h [4, 13]: 0% | % KD and Mortality 24 h [4, 13]: 5% | % KD and Mortality 15′ [5, 13]: 25% | % KD and Mortality 30′ [5, 13]: 65% | % KD and Mortality 1 h [5, 13]: 85% | % KD and Mortality 2 h [5, 13]: 85% | % KD and Mortality 3 h [5, 13]: 85% | % KD and Mortality 4 h [5, 13]: 85% | % KD and Mortality 6 h [5, 13]: 85% | % KD and Mortality 24 h [5, 13]: 95% | toxicity / efficacy of the substance alone (summary in words) ([2]; odorous house ant): no KD/mortality

CC1(C)[C@H](C(=O)O[C@H](C#N)c2cccc(Oc3ccccc3)c2)[C@@H]1C=C(Br)Br [deltamethrin (1%)]
Average % Mortality after 10 min ([1]; 10 min, Table 31, aqueous deltamethrin/adjuvant): 37% | Average % Mortality after 20 min ([1]; 20 min, Table 31, aqueous deltamethrin/adjuvant): 100% | Average % Mortality after 40 min ([1]; 40 min, Table 31, aqueous deltamethrin/adjuvant): 100% | Average % Mortality after 60 min ([1]; Table 31, aqueous deltamethrin/adjuvant): 100% | Average % Mortality after 20 min ([2]; 20 min, Table 30, aqueous deltamethrin/adjuvant): 43% | Average % Mortality after 60 min ([2]; 60 min, Table 30, aqueous deltamethrin/adjuvant): 80% | Average % Mortality after 90 min ([2]; 90 min, Table 30, aqueous deltamethrin/adjuvant): 90% | Average % Mortality after 2 hr ([2]; 2 hr, Table 30, aqueous deltamethrin/adjuvant): 93%

CC1(C)[C@H](C(=O)O[C@H](C#N)c2cccc(Oc3ccccc3)c2)[C@@H]1C=C(Br)Br [deltamethrin]
% of the flies killed after 24 h ([4]; 0.02% deltamethrin in acetone on glazed tiles, with or without 1% Compound A + 0.5% Compound B): 7% | % of the flies killed after 15′ ([5]; 0.001% deltamethrin in acetone on glazed tiles, with or without 1% Compound A + 0.5% Compound B): 2% | % of the flies killed after 30′ [5, 14]: 18% | % of the flies killed after 1 h [5, 14]: 58% | % of the flies killed after 2 h [5, 14]: 80% | % of the flies killed after 3 h [5, 14]: 88% | % of the flies killed after 24 h [5, 14]: 92%

O=[N+]([O-])NC1=NCCN1Cc1ccc(Cl)nc1 [imidacloprid]
% KD and Mortality 15′ [4, 15]: 5% | % KD and Mortality 30′ [4, 15]: 5% | % KD and Mortality 1 h [4, 15]: 5% | % KD and Mortality 2 h [4, 15]: 5% | % KD and Mortality 3 h [4, 15]: 5% | % KD and Mortality 4 h [4, 15]: 5% | % KD and Mortality 6 h [4, 15]: 5% | % KD and Mortality 24 h [4, 15]: 20% | % KD and Mortality 15′ [5, 15]: 25% | % KD and Mortality 30′ [5, 15]: 55% | % KD and Mortality 1 h [5, 15]: 40% | % KD and Mortality 2 h [5, 15]: 95% | % KD and Mortality 3 h [5, 15]: 95% | % KD and Mortality 4 h [5, 15]: 95% | % KD and Mortality 6 h [5, 15]: 95% | % KD and Mortality 24 h [5, 15]: 100%
